Patent US20020111274A1, “1-alkyl-3-[1-(substituted phenyl) benzotriazol-6-yl] uracils” (BASF Aktiengesellschaft, priority 2000, published 2002)

Tests used:
Set-up in all cases: scale not given here
ABUTH Velvetleaf [1] = assay: Postemergence herbicidal evaluation, ABUTH; assay type: in vivo, Abutilon theophrasti, Medic.; conditions: postemergence spray, rated about two-three weeks after treatment
How it was run: (§1)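 Two-week-old seedlings sprayed postemergence with compound in 80/20 acetone/water plus 1.0% methylated seed oil, at about 0.006–0.400 kg/ha, through a nozzle at 40 psi. Plants kept under greenhouse conditions and visually rated about two–three weeks after treatment; ratings from repeat tests averaged.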

AMBEL Ragweed, Common [2] = assay: Postemergence herbicidal evaluation, AMBEL; assay type: in vivo, Ambrosia artemisifolia, L.; conditions: postemergence spray, rated about two-three weeks after treatment
How it was run: as §1

CASOB Sicklepod [3] = assay: Postemergence herbicidal evaluation, CASOB; assay type: in vivo, Cassia obtusifolia, L.; conditions: postemergence spray, rated about two-three weeks after treatment
How it was run: as §1

[4] = system: CHEAL Lambsquarters, Common; assay: Postemergence herbicidal evaluation, CHEAL; assay type: in vivo, Chenopodium album, L.; conditions: postemergence spray, rated about two-three weeks after treatment
How it was run: as §1

ECHOG Barnyardgrass [5] = assay: Postemergence herbicidal evaluation, ECHOG; assay type: in vivo, Echinochloa crus-galli, (L.) Beau; conditions: postemergence spray, rated about two-three weeks after treatment
How it was run: as §1

GALAP Galium [6] = assay: Postemergence herbicidal evaluation, GALAP; assay type: in vivo, Galium aparine; conditions: postemergence spray, rated about two-three weeks after treatment
How it was run: as §1

[7] = system: IPOHE Morningglory, Ivyleaf; assay: Postemergence herbicidal evaluation, IPOHE; assay type: in vivo, Ipomoea hederacea, (L.) Jacq.; conditions: postemergence spray, rated about two-three weeks after treatment
How it was run: as §1

SETVI Foxtail, Green [8] = assay: Postemergence herbicidal evaluation, SETVI; assay type: in vivo, Setaria viridis, (L.) Beau; conditions: postemergence spray, rated about two-three weeks after treatment
How it was run: as §1

GLXMAW Soybean, Williams [9] = assay: Postemergence herbicidal evaluation, GLXMAW; assay type: in vivo, Glycine max, (L.) Merr. cv Williams; conditions: postemergence spray, rated about two-three weeks after treatment
How it was run: as §1

[10] = system: TRZAWR Wheat, Winter, cv Riband; assay: Postemergence herbicidal evaluation, TRZAWR; assay type: in vivo, Triticum aestivum; conditions: postemergence spray, rated about two-three weeks after treatment
How it was run: as §1

ORYSAT Rice, Tebonnet [11] = assay: Postemergence herbicidal evaluation, ORYSAT; assay type: in vivo, Oryza sativa, (L.); conditions: postemergence spray, rated about two-three weeks after treatment
How it was run: as §1

ZEAMX Corn, Field [12] = assay: Postemergence herbicidal evaluation, ZEAMX; assay type: in vivo, Zea mays, L. (Sammel-Bezeichnung); conditions: postemergence spray, rated about two-three weeks after treatment
How it was run: as §1

ABUTH Velvetleaf [13] = assay: Preemergence herbicidal evaluation, ABUTH; assay type: in vivo, Abutilon theophrasti, Medic.; conditions: preemergence
How it was run: (§2)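 Preemergence soil spray: aqueous acetone, ~0.013–0.800 kg/ha, applied right after sowing (seed/potting-soil mix over ~1 in soil). Greenhouse, routine watering. Scored 4–5 wk post-treatment on a rating scale.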

AMBEL Ragweed, Common [14] = assay: Preemergence herbicidal evaluation, AMBEL; assay type: in vivo, Ambrosia artemisifolia, L.; conditions: preemergence
How it was run: as §2

CASOB Sicklepod [15] = assay: Preemergence herbicidal evaluation, CASOB; assay type: in vivo, Cassia obtusifolia, L.; conditions: preemergence
How it was run: as §2

[16] = system: CHEAL Lambsquarters, Common; assay: Preemergence herbicidal evaluation, CHEAL; assay type: in vivo, Chenopodium album, L.; conditions: preemergence
How it was run: as §2

ECHOG Barnyardgrass [17] = assay: Preemergence herbicidal evaluation, ECHOG; assay type: in vivo, Echinochloa crus-galli, (L.) Beau; conditions: preemergence
How it was run: as §2

GALAP Galium [18] = assay: Preemergence herbicidal evaluation, GALAP; assay type: in vivo, Galium aparine; conditions: preemergence
How it was run: as §2

[19] = system: IPOHE Morningglory, Ivyleaf; assay: Preemergence herbicidal evaluation, IPOHE; assay type: in vivo, Ipomoea hederacea, (L.) Jacq.; conditions: preemergence
How it was run: as §2

SETVI Foxtail, Green [20] = assay: Preemergence herbicidal evaluation, SETVI; assay type: in vivo, Setaria viridis, (L.) Beau; conditions: preemergence
How it was run: as §2

GLXMAW Soybean, Williams [21] = assay: Preemergence herbicidal evaluation, GLXMAW; assay type: in vivo, Glycine max, (L.) Merr. cv Williams; conditions: preemergence
How it was run: as §2

[22] = system: TRZAWR Wheat, Winter, cv Riband; assay: Preemergence herbicidal evaluation, TRZAWR; assay type: in vivo, Triticum aestivum; conditions: preemergence
How it was run: as §2

ORYSAT Rice, Tebonnet [23] = assay: Preemergence herbicidal evaluation, ORYSAT; assay type: in vivo, Oryza sativa, (L.); conditions: preemergence
How it was run: as §2

ZEAMX Corn, Field [24] = assay: Preemergence herbicidal evaluation, ZEAMX; assay type: in vivo, Zea mays, L. (Sammel-Bezeichnung); conditions: preemergence
How it was run: as §2

## CC(C)c1ccc(-n2nnc3cc(F)c(-n4c(=O)cc(C(F)(F)F)n(C)c4=O)cc32)cc1 [Example 21]
ABUTH Velvetleaf [1]; 0.008 kg/ha
  Postemergence herbicidal rating ABUTH: 9.0
ABUTH Velvetleaf [1]; 0.016 kg/ha
  Postemergence herbicidal rating ABUTH: 9.0
ABUTH Velvetleaf [1]; 0.032 kg/ha
  Postemergence herbicidal rating ABUTH: 9.0
ABUTH Velvetleaf [1]; 0.062 kg/ha
  Postemergence herbicidal rating ABUTH: 9.0
AMBEL Ragweed, Common [2]; 0.008 kg/ha
  Postemergence herbicidal rating AMBEL: 2.0
AMBEL Ragweed, Common [2]; 0.016 kg/ha
  Postemergence herbicidal rating AMBEL: 9.0
AMBEL Ragweed, Common [2]; 0.032 kg/ha
  Postemergence herbicidal rating AMBEL: 9.0
AMBEL Ragweed, Common [2]; 0.062 kg/ha
  Postemergence herbicidal rating AMBEL: 9.0
CASOB Sicklepod [3]; 0.008 kg/ha
  Postemergence herbicidal rating CASOB: 0.0
CASOB Sicklepod [3]; 0.016 kg/ha
  Postemergence herbicidal rating CASOB: 0.0
CASOB Sicklepod [3]; 0.032 kg/ha
  Postemergence herbicidal rating CASOB: 1.0
CASOB Sicklepod [3]; 0.062 kg/ha
  Postemergence herbicidal rating CASOB: 2.0
[4]; 0.008 kg/ha
  Postemergence herbicidal rating CHEAL: 8.0
[4]; 0.016 kg/ha
  Postemergence herbicidal rating CHEAL: 4.0
[4]; 0.032 kg/ha
  Postemergence herbicidal rating CHEAL: 9.0
[4]; 0.062 kg/ha
  Postemergence herbicidal rating CHEAL: 9.0
ECHOG Barnyardgrass [5]; 0.008 kg/ha
  Postemergence herbicidal rating ECHCG: 0.0
ECHOG Barnyardgrass [5]; 0.016 kg/ha
  Postemergence herbicidal rating ECHCG: 0.0
ECHOG Barnyardgrass [5]; 0.032 kg/ha
  Postemergence herbicidal rating ECHCG: 0.0
ECHOG Barnyardgrass [5]; 0.062 kg/ha
  Postemergence herbicidal rating ECHCG: 0.0
GALAP Galium [6]; 0.008 kg/ha
  Postemergence herbicidal rating GALAP: 2.0
GALAP Galium [6]; 0.016 kg/ha
  Postemergence herbicidal rating GALAP: 4.0
GALAP Galium [6]; 0.032 kg/ha
  Postemergence herbicidal rating GALAP: 4.0
GALAP Galium [6]; 0.062 kg/ha
  Postemergence herbicidal rating GALAP: 9.0
[7]; 0.008 kg/ha
  Postemergence herbicidal rating IPOHE: 9.0
[7]; 0.016 kg/ha
  Postemergence herbicidal rating IPOHE: 9.0
[7]; 0.032 kg/ha
  Postemergence herbicidal rating IPOHE: 6.0
[7]; 0.062 kg/ha
  Postemergence herbicidal rating IPOHE: 9.0
SETVI Foxtail, Green [8]; 0.008 kg/ha
  Postemergence herbicidal rating SETVI: 0.0
SETVI Foxtail, Green [8]; 0.016 kg/ha
  Postemergence herbicidal rating SETVI: 0.0
SETVI Foxtail, Green [8]; 0.032 kg/ha
  Postemergence herbicidal rating SETVI: 5.0
SETVI Foxtail, Green [8]; 0.062 kg/ha
  Postemergence herbicidal rating SETVI: 5.0
GLXMAW Soybean, Williams [9]; 0.008 kg/ha
  Postemergence herbicidal rating GLXMAW: 4.5
GLXMAW Soybean, Williams [9]; 0.016 kg/ha
  Postemergence herbicidal rating GLXMAW: 5.0
GLXMAW Soybean, Williams [9]; 0.032 kg/ha
  Postemergence herbicidal rating GLXMAW: 5.5
GLXMAW Soybean, Williams [9]; 0.062 kg/ha
  Postemergence herbicidal rating GLXMAW: 5.5
[10]; 0.008 kg/ha
  Postemergence herbicidal rating TRZAWR: 3.5
[10]; 0.016 kg/ha
  Postemergence herbicidal rating TRZAWR: 4.0
[10]; 0.032 kg/ha
  Postemergence herbicidal rating TRZAWR: 4.0
[10]; 0.062 kg/ha
  Postemergence herbicidal rating TRZAWR: 4.0
ORYSAT Rice, Tebonnet [11]; 0.008 kg/ha
  Postemergence herbicidal rating ORYSAT: 3.0
ORYSAT Rice, Tebonnet [11]; 0.016 kg/ha
  Postemergence herbicidal rating ORYSAT: 3.5
ORYSAT Rice, Tebonnet [11]; 0.032 kg/ha
  Postemergence herbicidal rating ORYSAT: 3.5
ORYSAT Rice, Tebonnet [11]; 0.062 kg/ha
  Postemergence herbicidal rating ORYSAT: 3.5
ZEAMX Corn, Field [12]; 0.008 kg/ha
  Postemergence herbicidal rating ZEAMX: 4.5
ZEAMX Corn, Field [12]; 0.016 kg/ha
  Postemergence herbicidal rating ZEAMX: 4.5
ZEAMX Corn, Field [12]; 0.032 kg/ha
  Postemergence herbicidal rating ZEAMX: 4.5
ZEAMX Corn, Field [12]; 0.062 kg/ha
  Postemergence herbicidal rating ZEAMX: 5.0
ABUTH Velvetleaf [13]; rate 0.016 kg/ha
  ABUTH herbicidal rating: 0.0
ABUTH Velvetleaf [13]; rate 0.032 kg/ha
  ABUTH herbicidal rating: 4.5
ABUTH Velvetleaf [13]; rate 0.062 kg/ha
  ABUTH herbicidal rating: 6.0
ABUTH Velvetleaf [13]; rate 0.125 kg/ha
  ABUTH herbicidal rating: 9.0
AMBEL Ragweed, Common [14]; rate 0.016 kg/ha
  AMBEL herbicidal rating: 0.0
AMBEL Ragweed, Common [14]; rate 0.032 kg/ha
  AMBEL herbicidal rating: 3.0
AMBEL Ragweed, Common [14]; rate 0.062 kg/ha
  AMBEL herbicidal rating: 3.5
AMBEL Ragweed, Common [14]; rate 0.125 kg/ha
  AMBEL herbicidal rating: 7.5
CASOB Sicklepod [15]; rate 0.016 kg/ha
  CASOB herbicidal rating: 0.0
CASOB Sicklepod [15]; rate 0.032 kg/ha
  CASOB herbicidal rating: 0.0
CASOB Sicklepod [15]; rate 0.062 kg/ha
  CASOB herbicidal rating: 1.5
CASOB Sicklepod [15]; rate 0.125 kg/ha
  CASOB herbicidal rating: 2.0
[16]; rate 0.016 kg/ha
  CHEAL herbicidal rating: 9.0
[16]; rate 0.032 kg/ha
  CHEAL herbicidal rating: 9.0
[16]; rate 0.062 kg/ha
  CHEAL herbicidal rating: 9.0
[16]; rate 0.125 kg/ha
  CHEAL herbicidal rating: 9.0
ECHOG Barnyardgrass [17]; rate 0.016 kg/ha
  ECHCG herbicidal rating: 0.0
ECHOG Barnyardgrass [17]; rate 0.032 kg/ha
  ECHCG herbicidal rating: 0.0
ECHOG Barnyardgrass [17]; rate 0.062 kg/ha
  ECHCG herbicidal rating: 1.0
ECHOG Barnyardgrass [17]; rate 0.125 kg/ha
  ECHCG herbicidal rating: 3.5
GALAP Galium [18]; rate 0.016 kg/ha
  GALAP herbicidal rating: 0.0
GALAP Galium [18]; rate 0.032 kg/ha
  GALAP herbicidal rating: 0.0
GALAP Galium [18]; rate 0.062 kg/ha
  GALAP herbicidal rating: 0.0
GALAP Galium [18]; rate 0.125 kg/ha
  GALAP herbicidal rating: 0.0
[19]; rate 0.016 kg/ha
  IPOHE herbicidal rating: 0.0
[19]; rate 0.032 kg/ha
  IPOHE herbicidal rating: 1.5
[19]; rate 0.062 kg/ha
  IPOHE herbicidal rating: 2.0
[19]; rate 0.125 kg/ha
  IPOHE herbicidal rating: 3.5
SETVI Foxtail, Green [20]; rate 0.016 kg/ha
  SETVI herbicidal rating: 0.0
SETVI Foxtail, Green [20]; rate 0.032 kg/ha
  SETVI herbicidal rating: 2.0
SETVI Foxtail, Green [20]; rate 0.062 kg/ha
  SETVI herbicidal rating: 6.5
SETVI Foxtail, Green [20]; rate 0.125 kg/ha
  SETVI herbicidal rating: 9.0
GLXMAW Soybean, Williams [21]; rate 0.016 kg/ha
  GLXMAW herbicidal rating: 0.0
GLXMAW Soybean, Williams [21]; rate 0.032 kg/ha
  GLXMAW herbicidal rating: 0.0
GLXMAW Soybean, Williams [21]; rate 0.062 kg/ha
  GLXMAW herbicidal rating: 0.5
GLXMAW Soybean, Williams [21]; rate 0.125 kg/ha
  GLXMAW herbicidal rating: 1.0
[22]; rate 0.016 kg/ha
  TRZAWR herbicidal rating: 0.0
[22]; rate 0.032 kg/ha
  TRZAWR herbicidal rating: 0.0
[22]; rate 0.062 kg/ha
  TRZAWR herbicidal rating: 0.0
[22]; rate 0.125 kg/ha
  TRZAWR herbicidal rating: 1.0
ORYSAT Rice, Tebonnet [23]; rate 0.016 kg/ha
  ORYSAT herbicidal rating: 0.0
ORYSAT Rice, Tebonnet [23]; rate 0.032 kg/ha
  ORYSAT herbicidal rating: 0.0
ORYSAT Rice, Tebonnet [23]; rate 0.062 kg/ha
  ORYSAT herbicidal rating: 0.0
ORYSAT Rice, Tebonnet [23]; rate 0.125 kg/ha
  ORYSAT herbicidal rating: 0.0
ZEAMX Corn, Field [24]; rate 0.016 kg/ha
  ZEAMX herbicidal rating: 0.0
ZEAMX Corn, Field [24]; rate 0.032 kg/ha
  ZEAMX herbicidal rating: 0.0
ZEAMX Corn, Field [24]; rate 0.062 kg/ha
  ZEAMX herbicidal rating: 1.0
ZEAMX Corn, Field [24]; rate 0.125 kg/ha
  ZEAMX herbicidal rating: 3.5
